In ChEMBL document CHEMBL4828704, “Efophylins A and B, Two C2-Asymmetric Macrodiolide Immunosuppressants from Streptomyces malaysiensis” (J Nat Prod, 2021):
Activity calls are given as the source filed them. The rule behind the calls is not given here.

What was measured:
T-cell [1] = test: Inhibition of ConA-induced IL-2 expression in BALB/c mouse T-lymphocyte measured after 24 hrs by ELISA; assay type: functional, tissue-based
Splenocyte [2] = test: Immunosuppressive activity in C57BL/6 mouse splenocyte assessed as inhibition of mixed lymphocyte reaction when cocultured with mitomycin-C pretreated BALB/c mouse splenocyte measured up to 72 hrs by CCK-8 assay; assay type: functional, cell-based; conditions: C57BL/6, Splenocyte
[3] = Inhibition of ConA-induced proliferation of BALB/c mouse splenocyte measured after 72 hrs by CCK-8 assay; assay type: functional, tissue-based
Splenocyte [4] = test: Cytotoxicity against BALB/c mouse splenocyte assessed as reduction in cell viability measured after 72 hrs by CCK-8 assay; assay type: cell-based
[5] = target: Calcineurin subunit B type 1 (Homo sapiens, UniProt P63098); test: Inhibition of CNB (unknown origin) using p-NPP as substrate preincubated for 10 mins followed by substrate addition by spectrophotometry analysis
Sequence of Calcineurin subunit B type 1 (P63098 2-170 limits assumed): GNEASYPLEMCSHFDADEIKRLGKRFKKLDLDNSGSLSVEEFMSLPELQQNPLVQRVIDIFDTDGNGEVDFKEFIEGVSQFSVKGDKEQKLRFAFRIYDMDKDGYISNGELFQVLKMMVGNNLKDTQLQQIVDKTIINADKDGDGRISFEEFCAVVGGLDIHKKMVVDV

T-cell [6] = test: Inhibition of ConA-induced IL-2 expression in BALB/c mouse T-lymphocyte at 40 uM measured after 24 hrs by ELISA; assay type: functional, tissue-based
Splenocyte [7] = test: Inhibition of NFAT activation in BALB/c mouse splenocyte at 5 to 30 uM by immunoblotting analysis; assay type: tissue-based; conditions: dose 5-30 µM
Splenocyte [8] = test: Inhibition of NFAT phosphorylation in BALB/c mouse splenocyte at 5 to 30 uM by immunoblotting analysis; assay type: tissue-based; conditions: dose 5-30 µM

| Compound | inhibition (T-cell [1]) | IC50 (Splenocyte [2]) [µM] | IC50 [3] [µM] | IC50 (Splenocyte [4]) [µM] | IC50 [5] [µM] | inhibition (T-cell [6]) | inhibition (Splenocyte [7]) | inhibition (Splenocyte [8]) | inhibition [5] |
| --- | --- | --- | --- | --- | --- | --- | --- | --- | --- |
| CC[C@@H]1[C@@H](C)O[C@@](OC)([C@@H](C)[C@H](O)[C@H](C)[C@H]2OC(=O)/C=C/C=C/[C@H](C)[C@@H]([C@@H](C)[C@@H](O)[C@H](C)C(O)/C=C/[C@H](CC)[C@@H](C)O)OC(=O)/C=C/C=C/[C@@H]2C)C[C@H]1O[C@H]1C[C@H](O)[C@H](O)[C@H](C)O1 (some centres undefined) | Dose-Dependent Effect | 27.9 | 24.6 | 49 | 24 | Active | Active | Active | – |
| CC[C@@H]1[C@@H](C)O[C@@](O)([C@@H](C)[C@H](O)[C@H](C)[C@H]2OC(=O)/C=C/C=C/[C@H](C)[C@@H]([C@@H](C)[C@@H](O)[C@H](C)C(O)/C=C/[C@H](CC)[C@@H](C)O)OC(=O)/C=C/C=C/[C@@H]2C)C[C@H]1O[C@H]1C[C@H](O)[C@H](O)[C@H](C)O1 (some centres undefined) | – | – | – | – | – | – | – | – | inactive |
